The structures appear in SMILES notation.

This assay concerns Parkinson's disease patients in the OFF state. The assay can be described thus: Phase 2 study of pulmonary levodopa in PD patients: plasma levodopa concentration vs UPDRS. The assay is classed as in vivo, human. The conditions noted are these: FIG. 8, plasma concentration vs UPDRS. The method, then: The twenty four PD (24) patients treated in this study underwent serial evaluations of L-dopa plasma levels, motor response, and safety at each visit. The patients were administered the study drug in the OFF state with the serial evaluations starting prior to dosing and continuing for up to 180 minutes post-dose. Motor function was measured using a tapping test, the Unified Parkinson's Disease Rating Scale Part III (UPDRS III), and subjective evaluation of “meaningful” ON and OFF. Safety parameters monitored included pulmonary function, clinical laboratory data, EGCs, and vital signs (blood pressure, heart rate, and orthostatic blood pressure). This study was designed to measure the time, magnitude, and durability of pulmonary levodopa's effect on motor function, to evaluate the safety and tolerability of pulmonary levodopa in Parkinson's disease patients.
In FIG. 8, patient's plasma levodopa concentrations are being compared to UPDRS scores. UPDRS is a standard test for Parkinson's disease patients to test their response to drug treatment and their disease progression. […] The different baseline levels of levodopa plasma relate to the fact that each patient has a different effective dose or effective concentration for the levodopa to have an effect on each patient. […]

Consider `N[C@@H](Cc1ccc(O)c(O)c1)C(=O)O` [L-Dopa, levodopa], for which the “levodopa plasma concentration difference between being in the off state and in the on state” value fell in the range of 200 to 400 ng/mL.

Source of the values: patent US20170296498A1, “Rapid Relief of Motor Fluctuations in Parkinson's Disease” (Civitas Therapeutics, Inc., priority 2014, published 2017).
